Source: patent publication US20240002379A1, “ASYMMETRIC CONJUGATE COMPOUNDS” (Pheon Therapeutics Ltd., priority 2016, published 2024)
Like-named read-outs stand apart in the source and are kept apart here.

Experiments:
[1] = test system: PC3 (prostate) cell line; assay: MTT cytotoxicity assay, PC3; assay type: cell-based; conditions: MTT assay, 72 hour incubation, read-out: Cytotoxicity PC3 (nM, 72 hour)
Procedure: (§1) Tumor cell lines were maintained in RPMI1640 medium supplemented with 10% heat-inactivated fetal bovine serum, 2 mM L-glutamine and 1 mM sodium pyruvate. 1800 cells per well were seeded in a volume of 180 μl in a 96-well flat bottom polystyrene plate. The cells were allowed to adhere overnight at 37° C. in a CO2 incubator. Ligands were initially formulated in DMSO, and stocks stored at −80° C. They were then further formulated at lox concentration in RPMI1640 medium. 20 ul of diluted samples were added into each treatment well. On each plate, blank wells with no cells, and untreated wells containing cells, were included. Plates were then cultured at 37° C. in a CO2 incubator for 72 hrs. Cytotoxicity was evaluated using a tetrazolium salt-based assay, the MTT assay. After 72 hours, the supernatant was removed from each well and 200 μl of a sterile filtered 500 μg/ml MTT solution in water added to each well. The plates were then incubated at 37° C. in a CO2 incubator for 4 hrs. The supernatant was then removed and the formazan crystals formed solubilized by adding 150 μl of DMSO to each well. The plate was then read on a plate reader at 540 nm, and percentage cell survival calculated as follows: ((mean absorbance treated wells at concentration x−mean absorbance blank wells)[…](mean absorbance untreated wells at concentration x−mean absorbance blank wells))×100. Data were plotted as concentration in nM vs. % cell survival in Microsoft Excel, and IC50 values (concentration where cell survival is reduced by a half) were determined from the graph.

[2] = test system: FaDu (head and neck cancer) cell line; assay: MTT cytotoxicity assay, FaDu; assay type: cell-based; conditions: Homo sapiens, MTT assay, 72 hour incubation
Procedure: as §1

[3] = test system: linear double-stranded HexARev DNA fragment; assay: DNA cleavage assay, HexARev fragment; assay type: biochemical; conditions: ligand concentration 10 μM and 100 nM (FIG. 16)
Procedure: The ability of a further series of compounds 13, 42, 59, 99 and the PBD dimer Talirine to cross-link DNA was determined using an assay involving a linear double-stranded HexARev fragment (FIG. 15).
The ability of 13 and of a series of compounds to cleave double-stranded DNA was investigated using a modification of the previously established DNA footprinting assay (34). Following an overnight incubation of the ligand-DNA complexes, the mixture was mixed with strand separation buffer containing 10 mM EDTA, 10 mM NaOH, 0.1% bromophenol blue, 80% formamide and incubated at 100° C. for 3 min. The mixture was then immediately cooled on ice and run on an 8% denaturing gel. […] Using the GA marker, these additional bands were identified as cleavage products produced by 13 at certain A sites of the DNA fragment.
The preparation of the TyrT DNA fragment (FIG. 8) and HexARev DNA fragment (FIG. 15) have been previously described (34). Briefly, the sequence which had been cloned into the BamHI site of pUC18 was obtained by cutting with HindIII and EcoRI. Radiolabelled DNA fragments were prepared by filling in the 3′-end of the HindIII site with [α-^32P]dATP using Klenow DNA polymerase (exo-).
The radiolabelled DNA fragment was separated from the remainder of the plasmid DNA on a 6% non-denaturing polyacrylamide gel. The gel (20 cm long, 0.3 mm thick) was run at 400 V in 1×TBE running buffer for about 1-2 h, until the bromophenol blue had run most of the way down the gel. The glass plates were separated and the position of the labelled DNA fragment was established by short (1 min) exposure to an X-ray film. The relevant band was then cut from the gel and the radiolabelled DNA eluted by adding 300 μL 10 mM Tris-HCl, pH 7.5 containing 0.1 mM EDTA and gently agitating overnight at room temperature. The eluted DNA was finally precipitated with ethanol and re-suspended in a suitable volume of 10 mM Tris-HCl, pH 7.5 containing 0.1 mM EDTA buffer so as to give at least 10 counts per second/μL on a hand-held Geiger counter. With fresh plasmid and α-^32P-dATP this process typically generated about 150 μL of radiolabelled fragment DNA. The absolute concentration of the DNA is not important, and it is typically lower than 10 nM.
Compounds such as 13 were synthesised as described above and the PBD dimer Talirine was obtained from Aurum Pharmatech LLC. Stock solution was prepared by dissolving the ligands in DMSO to give a concentration of 10 mM. From this stock solution, working solutions of the desired concentration were prepared by diluting with 10 mM Tris-HCl, pH 7.5 containing 10 mM NaCl.
Radiolabelled DNA (1.5 μL) was mixed with 1.5 μL ligand solution of various concentrations (10 μM-10 nM) and incubated overnight at 37° C.
Labelled DNA (1.5 μL) was mixed with 20 μL sterile water and 5 μL of denaturing loading solution (80% formamide containing 10 mM EDTA, 10 mM NaOH, 0.01% bromophenol blue). The sample was then incubated at 100° C. for 20 min with the micro-centrifuge tube cap open to allow evaporation.
Loading solution (4.5 μL) was added to samples from Section 2.1. The digestion products were boiled for 3 min at 100° C. and quickly cooled on ice prior to electrophoresis. Separation was performed on an 8% denaturing polyacrylamide gel (40 cm long, 0.3 mm thick) at 1500V for about 2 h until the dye reached the bottom of the gel. […]

Structure (SMILES)	IC50 [1]	IC50 ([2]; read-out: Cytotoxicity FaDu (nM, 72 hour))	cleavage of HexARev DNA fragment [3]	IC50 ([2]; read-out: IC50 value in FaDu)
COc1cc2c(cc1OCCCC(=O)N1C[C@@H](CCl)c3c1cc(O)c1ccccc31)N=C[C@@H]1CCCCN1C2=O [Compound 13, (S)-3-(4-((S)-1-(Chloromethyl)-5-hydroxy-1,2-dihydro-3H-benzo[e]indol-3-yl)-4-oxobutoxy)-2-methoxy-7,8,9,10-tetrahydrobenzo[e]-pyrido[1,2-a][1,4]diazepin-12(6aH)-one]	1.43 nM	1.17 nM	cleave DNA	–
COc1cc2c(cc1OCc1cccc(CC(=O)N3C[C@@H](CCl)c4c3cc(O)c3ccccc43)c1)N=C[C@@H]1CCCCN1C2=O [Compound 42, (S)-3-((3-(2-((S)-1-(Chloromethyl)-5-hydroxy-1,2-dihydro-3H-benzo[e]indol-3-yl)-2-oxoethyl)benzyl)oxy)-2-methoxy-7,8,9,10-tetrahydrobenzo[e]pyrido[1,2-a][1,4]diazepin-12(6aH)-one]	0.03 nM	–	cleave DNA	0.01 nM
